The values below come from publication PMC6538953, “Metal Ions Activate the Human Taste Receptor TAS2R7” (Chemical Senses, 2019).

Residue numbers refer to the chain shown, from its start.

The target of assay [1] is T1, human TAS2R7 E264^7.32K mutant (Homo sapiens, UniProt Q9NYW3, E264K).
T1 construct: signal peptide: first 45 amino acid residues of rat somatostatin receptor 3 (N); expressed in transfected cells; host or cells: HEK293 PEAKrapid (ATCC CRL-2828), transient, co-transfected with Gα16-gust44
T1 sequence (Q9NYW3 1-318 E264K): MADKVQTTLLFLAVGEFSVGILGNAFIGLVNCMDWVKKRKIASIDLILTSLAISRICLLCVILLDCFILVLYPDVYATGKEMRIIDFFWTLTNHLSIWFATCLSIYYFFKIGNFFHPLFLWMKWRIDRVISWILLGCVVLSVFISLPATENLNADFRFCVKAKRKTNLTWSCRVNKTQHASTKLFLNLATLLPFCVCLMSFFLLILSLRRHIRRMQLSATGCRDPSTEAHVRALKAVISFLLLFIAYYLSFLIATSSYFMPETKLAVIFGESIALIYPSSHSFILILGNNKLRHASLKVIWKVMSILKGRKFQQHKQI
The assay can be described thus: Calcium mobilization assay, TAS2R7 mutant E264K. Format: cell-based. To be noted: 20 mM metal ions except 0.16 mM Al2(SO4)3; cromolyn 10 mM; Figure 6B. From the text:
(§1) The coding sequences of human TAS2Rs were amplified from human genomic DNA, then subcloned into pcDNA3.1(+) vector, with the herpes simplex virus glycoprotein D epitope (HSV) at the C-terminal and a signal peptide consisting of the first 45 amino acid residues of the rat somatostatin receptor 3 at the N-terminal, essentially as described previously ([Bufe et al. 2002]). Point mutations in human TAS2R7 (NCBI Reference Sequence: NP_076408.1) were constructed by site-directed mutagenesis. All the constructs were confirmed by Sanger sequencing.
(§2) Human embryonic kidney 293 (PEAKrapid, ATCC # CRL-2828) cells were cultured in Opti-MEM medium with 4% fetal bovine serum. One day before transfection, cells were seeded on a 96-well plate at a density of 25 000 per well. Cells were then transiently transfected with a TAS2R construct (0.1 µg/well) along with a G protein Gα16-gust44 (0.1 µg/well) construct by Lipofectamine 2000 (0.5 µl/well). For controls, only Gα16-gust44 was used (mock transfection). Twenty-four hours after transfection, cells were washed with HBSS including 10 mM HEPES and loaded with Fluo-4 in the dark for 1 h. After incubation, cells were washed 2 times with HBSS (including 10 mM HEPES), incubated in the dark for another 30 min, and then washed with assay solution once more before running the assay using a FlexStation III reader. Relative fluorescence units (excitation at 494 nm, emission at 516 nm, and auto cutoff at 515 nm) were read every 2 s for 2 min. Calcium mobilization traces were recorded.
Calcium mobilization traces were raw data obtained from single wells. Changes in fluorescence (ΔF) were calculated as the peak fluorescence minus baseline fluorescence ([Lei et al. 2015]). The calcium mobilization was quantified as the percentage of change (ΔF) relative to baseline (F). […] Calcium mobilization traces and bar graphs along with dose-dependent plots were all generated by GraphPad Prism 7. Analysis of variance with Dunnett’s multiple comparisons test was used for statistical analysis. *P < 0.05.
To assess the importance of these residues, we performed site-directed mutagenesis. We mutated the negatively charged residues E16^1.42, E264^7.32, and E271^7.39 to Q (glutamine), K (lysine), or L (leucine). The facing H94^3.37 was mutated to F (phenylalanine). HEK293 cells that expressed mutant receptors along with Gα16-gust44 were examined for their responses to metal ions (20 mM for all except 0.16 mM Al2(SO4)3) and cromolyn (10 mM, as a positive control) to assess receptor’s function. To determine the expression level of each receptor, we stained the wild-type or mutant receptor-transfected cells using an anti-HSV antibody since all the receptors are tagged with HSV at c-terminal. […]

The target in assay [2] is T2, human TAS2R7 E264^7.32L mutant (Homo sapiens, UniProt Q9NYW3, E264L).
T2 construct: signal peptide: first 45 amino acid residues of rat somatostatin receptor 3 (N); expressed in transfected cells; host or cells: HEK293 PEAKrapid (ATCC CRL-2828), transient, co-transfected with Gα16-gust44
T2 sequence (Q9NYW3 1-318 E264L): T1 sequence (Q9NYW3 1-318 E264K) with K264L
Nature of the assay: Calcium mobilization assay, TAS2R7 mutant E264L. To be noted: 20 mM metal ions except 0.16 mM Al2(SO4)3; cromolyn 10 mM; Figure 6B. Type of assay: cell-based.
Text: as §1, §2
Calcium mobilization traces were raw data obtained from single wells. Changes in fluorescence (ΔF) were calculated as the peak fluorescence minus baseline fluorescence ([Lei et al. 2015]). The calcium mobilization was quantified as the percentage of change (ΔF) relative to baseline (F). […] Calcium mobilization traces and bar graphs along with dose-dependent plots were all generated by GraphPad Prism 7. Analysis of variance with Dunnett’s multiple comparisons test was used for statistical analysis. *P < 0.05. […]

Assay [3] deals with T3, human TAS2R7 E264^7.32Q mutant (Homo sapiens, UniProt Q9NYW3, E264Q).
T3 construct: signal peptide: first 45 amino acid residues of rat somatostatin receptor 3 (N); expressed in transfected cells; host or cells: HEK293 PEAKrapid (ATCC CRL-2828), transient, co-transfected with Gα16-gust44
T3 sequence (Q9NYW3 1-318 E264Q): T1 sequence (Q9NYW3 1-318 E264K) with K264Q
The assay can be described thus: Calcium mobilization assay, TAS2R7 mutant E264Q. Format: cell-based. The settings on record: 20 mM metal ions except 0.16 mM Al2(SO4)3; cromolyn 10 mM; Figure 6C.
Text: as §1
Human embryonic kidney 293 (PEAKrapid, ATCC # CRL-2828) cells were cultured in Opti-MEM medium with 4% fetal bovine serum. […] After incubation, cells were washed 2 times with HBSS (including 10 mM HEPES), incubated in the dark for another 30 min, and then washed with assay solution once more before running the assay using a FlexStation III reader. Relative fluorescence units (excitation at 494 nm, emission at 516 nm, and auto cutoff at 515 nm) were read every 2 s for 2 min. Calcium mobilization traces were recorded.
Calcium mobilization traces were raw data obtained from single wells. Changes in fluorescence (ΔF) were calculated as the peak fluorescence minus baseline fluorescence ([Lei et al. 2015]). The calcium mobilization was quantified as the percentage of change (ΔF) relative to baseline (F). […]

For another assay, the target named is T4, human TAS2R7 (Homo sapiens, UniProt Q9NYW3).
T4 construct: first 45 residues of rat somatostatin receptor 3 (signal peptide) (N); expressed in transfected cells; host or cells: HEK293 (PEAKrapid, ATCC CRL-2828)
T4 sequence (Q9NYW3 1-318): T1 sequence (Q9NYW3 1-318 E264K) with K264E
Further details: method as in Meyerhof et al. 2010. To be noted: ref Meyerhof et al. 2010; cited from earlier work.

Take `O=C(O)c1cc(=O)c2c(OCC(O)COc3cccc4oc(C(=O)O)cc(=O)c34)cccc2o1` [cromolyn, reference compound]: the “Response of E264K mutant receptor” value in assay [1] is listed as “reduced”. Moreover, the “Response of E264L mutant receptor” value in assay [2] is “reduced”. In addition, in assay [3], the “Response of E264Q mutant receptor” value is “reduced responses”. The “TAS2R7 reported to respond to bitter compounds” value on human TAS2R7 is recorded as “respond”.
